Key:
mTOR = mTOR phosphorylation in NSC cultures (Western blot); format: cell-based, mouse
Procedure: (§1) Cell culture: E13.5 cortical embryonic mouse CNS stem cells were grown as previously described (Johe, et al., Genes Dev 10, 3129-40, 1996). Cells were expanded in serum-free DMEM/F12 medium with N2 supplement and FGF2 (20 ng/ml) for 5 days under 5% oxygen conditions and were re-plated fresh or from frozen stocks at 1,000-10,000 cells per cm^2. FGF2 was included throughout the studies, unless otherwise stated. Adult rat (3-6 months old) or adult mouse (2-4 months old) SVZ NSC cultures were grown in the same medium as the fetal cultures.
Fetal NSCs in culture express Ang-1, and treatment (2 days) with Dll4 maintained it whereas CNTF reduced it. Ang-2 expression was maintained under these conditions. […] Ang-2 induced mTOR and STAT3-S727 phosphorylation, unlike Ang-1 (FIG. 2a). Ang-1, however, induced Akt phosphorylation.
Three characterized Tie-2 receptor antibodies were used to determine if the Tie-2 receptor was expressed in the immature neural precursor cells found in the SVZ of the adult brain. When ligand is bound, the Tie-2 receptor becomes phosphorylated. An antibody that recognizes the activated receptor (RnD Systems, AF2720) and another antibody that binds to a distinct site (Santa Cruz, sc-324) identified many positive cells in the subventricular zone of the adult rat brain. In regions that were more distant from the ventricle, Tie-2 was expressed predominantly on blood vessels and endothelial cells reacted with antibodies against the activated receptor. Precursor cells that proliferate in vitro can be readily derived from the fetal and adult brain. The homogeneity of these cell populations in attached culture and their potential to generate neurons and glia is supported by clonal analysis. […] This colony number assay measured the survival of precursor cells that could differentiate into neurons and glia (See, Table 1).

Tie-2 receptor = assay: Tie-2 phosphorylation in fetal neural cells (Western blot); format: cell-based, mouse; conditions: exogenous addition, Western blot (FIG. 10a)
Procedure: as §1, with “Culture:” for “culture:”, “(Johe” for “(Johe,”, “3129,” for “3129-40,”, “our experiments,” for “the studies,”, “Neural Stem Cell (NSC)” for “NSC”
Pharmacological treatments: Unless otherwise stated, we used the following concentrations: Dll4 and Ang2 (in vitro, 500 ng/ml; in vivo 12.5 μg as a single injection), FGF2 (in vitro, 20 ng/ml), JAK inhibitor (in vitro, 200 nM; in vivo, 250 ng as a single injection), insulin (in vitro, 25 μg/ml; in vivo, 40 μg as a single injection), DAPT (1 μM), Fluorogold (0.5 μg). […]
Three characterized Tie-2 receptor antibodies were used to determine if the Tie-2 receptor was expressed in the immature neural precursor cells found in the SVZ of the adult brain. […] Precursor cells that proliferate in vitro can be readily derived from the fetal and adult brain. […] This colony number assay measured the survival of precursor cells that could differentiate into neurons and glia (See, Table 1).

Ang-2: human angiopoietin-2 (623-AN) from R&D; antagonist for angiopoietin-1 at Tie2
mTOR phosphorylation (mTOR; NSC cultures, 0.5 μg/ml (FIG. 2a, Example 3)): induced
effect on mTOR (mTOR; Western blots, fetal neural cells (FIG. 10a, Example 9)): no effect
phosphorylation of Tie-2 (Tie-2 receptor): promoted phosphorylation
pathology associated with the 6OHDA lesion (single intraventricular injection 2 weeks after lesion): hemorrhage and an enlarged ventricle
risk of bleeding (summary of in vivo treatments): increases the risk of bleeding

Source: patent publication US20110105393A1, “METHODS FOR PROMOTING STEM CELL PROLIFERATION AND SURVIVAL” (priority 2007, published 2011)
